From US4452986A, “Imidazolyl-substituted benzofurans” (The Upjohn Company, priority 1982, dated 1984)
Structures can show the parent of a compound that is named as a salt.

Target: T1, TXA2 synthetase (human platelet microsomes) (Homo sapiens, UniProt P24557)
T1 construct: human platelet microsomes (HPM); from tissue; host or cells: human platelets (microsomes)
T1 sequence (P24557 1-533): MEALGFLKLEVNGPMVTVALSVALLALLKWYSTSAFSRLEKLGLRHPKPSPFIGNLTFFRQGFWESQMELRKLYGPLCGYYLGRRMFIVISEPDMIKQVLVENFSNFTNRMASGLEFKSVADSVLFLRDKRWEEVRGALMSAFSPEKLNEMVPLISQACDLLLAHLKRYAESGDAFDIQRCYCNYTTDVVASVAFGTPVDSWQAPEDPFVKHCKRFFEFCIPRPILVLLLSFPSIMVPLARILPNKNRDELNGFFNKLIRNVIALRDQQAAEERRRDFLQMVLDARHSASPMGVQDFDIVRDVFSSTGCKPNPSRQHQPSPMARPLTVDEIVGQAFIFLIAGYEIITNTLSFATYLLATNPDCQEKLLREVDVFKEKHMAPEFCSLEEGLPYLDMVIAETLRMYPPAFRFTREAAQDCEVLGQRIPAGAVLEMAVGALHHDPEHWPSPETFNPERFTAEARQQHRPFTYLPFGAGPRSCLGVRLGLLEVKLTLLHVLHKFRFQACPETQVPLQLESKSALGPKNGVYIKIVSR
Experiment: TXA2 inhibition test: TXA2 generated from PGH2 with human platelet microsomes, response of superfused rabbit aortic strips
Format: biochemical
Conditions: human platelet microsomes + PGH2, rabbit aorta bioassay
Procedure: The compounds of the present invention were tested for TXA2 inhibition as follows:
Rabbit aortic strips were superfused in series with Krebs solution. Thromboxane A2 (TXA2) was generated by mixing prostaglandin H2 (PGH2) with human platelet microsomes (HPM).
Potential inhibitors were tested by comparing the response of the rabbit aorta to the amount of TXA2 produced by mixing PGH2 and HPM without the test compound in the reaction medium and then the amount of TXA2 produced when the test compound was added to the HPM 5 minutes before the HPM was mixed with PGH2. […] For a discussion of TXA2 synthetase inhibition testing see, e.g., R. Gorman, supra.

effectiveness in inhibiting TXA2 formation (rank among tested compounds): most effective
Structure (SMILES): O=C(O)c1cc2cc(Cn3ccnc3)ccc2o1 [Example 3, 5-N-Imidazolylmethyl-benzofuran-2-carboxylic Acid, Sodium Salt]
